biological target: PDEδ (Homo sapiens, UniProt O43924); experiment: competitive fluorescence polarization displacement assay; format: binding
Protocol: The Kd values were determined by the fluorescence polarization competition-binding assay, which we developed before.

Compound | Kd
COc1ccc(CNC(=O)CCCn2nc(C)c3c(C)n(-c4ccccc4)nc3c2=O)cc1 [2d] | 81 ± 21 nM
Cc1nn(CCCC(=O)NCCc2ccccc2)c(=O)c2nn(-c3ccccc3)c(C)c12 [2f] | 29 ± 7 nM
Cc1ccc(-n2nc3c(=O)n(CCCC(=O)NCc4ccco4)nc(C)c3c2C)cc1 [2g] | 50 ± 16 nM
Cc1ccc(-n2nc3c(=O)n(CCCC(=O)NCCc4ccccc4)nc(C)c3c2C)cc1 [2i] | 6 ± 2 nM
Cc1nn(CCCC(=O)NCc2ccco2)c(=O)c2nn(-c3ccccc3)c(C)c12 [2b] | 136 ± 55 nM
Cc1nn(CCCC(=O)NCc2ccccc2)c(=O)c2nn(-c3ccccc3)c(C)c12 [2c] | 42 ± 15 nM
Cc1ccc(CNC(=O)CCCn2nc(C)c3c(C)n(-c4ccccc4)nc3c2=O)cc1 [2e] | 96 ± 14 nM
Cc1ccc(CCNC(=O)CCCn2nc(C)c3c(C)n(-c4ccc(C)cc4)nc3c2=O)cc1 [2j] | 5 ± 3 nM
Cc1c(Cl)cccc1NC(=O)CCCn1nc(C)c2c(C)n(-c3ccccc3)nc2c1=O [2a] | 5 ± 2 nM
Cc1ccc(-n2nc3c(=O)n(CCCC(=O)NCc4ccccc4)nc(C)c3c2C)cc1 [2h] | 17 ± 9 nM

Source: PMC4843002, “Identification of pyrazolopyridazinones as PDEδ inhibitors” (Nature Communications, 2016)
